Like-named read-outs stand apart in the source and are kept apart here.
Key:
aromatase (CYP19A1) = biological target: T1, aromatase (CYP19A1) (Homo sapiens, UniProt P11511); experiment: Aromatase inhibition assay (Corning Supersomes CYP19/MFC kit, fluorescent); type: biochemical; settings: 37 °C, mean ± SD of at least three measurements
T1 construct: purchased Corning (Corning, NY)
T1 sequence (P11511 1-503): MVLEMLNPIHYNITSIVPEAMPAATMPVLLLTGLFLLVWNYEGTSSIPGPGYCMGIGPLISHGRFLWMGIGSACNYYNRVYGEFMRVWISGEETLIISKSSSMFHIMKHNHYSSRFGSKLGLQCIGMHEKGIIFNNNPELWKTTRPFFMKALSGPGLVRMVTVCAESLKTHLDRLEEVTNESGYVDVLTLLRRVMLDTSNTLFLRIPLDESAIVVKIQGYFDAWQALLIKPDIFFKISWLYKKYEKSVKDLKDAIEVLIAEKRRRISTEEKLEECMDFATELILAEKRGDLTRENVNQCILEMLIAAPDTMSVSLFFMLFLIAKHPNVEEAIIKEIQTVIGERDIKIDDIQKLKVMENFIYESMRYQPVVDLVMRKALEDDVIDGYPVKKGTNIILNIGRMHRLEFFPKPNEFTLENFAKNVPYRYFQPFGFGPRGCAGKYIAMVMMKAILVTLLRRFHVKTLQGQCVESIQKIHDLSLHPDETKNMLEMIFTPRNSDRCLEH
Description: Formation of a fluorescent metabolite was measured at Ex/Em of 409 nm/530 nm. Data represents mean ± SD of at least three independent measurements.
To evaluate the aromatase inhibitory potential of hops, licorice species, and their bioactive compounds, the Corning® Supersomes™ P450 Inhibition Kit CYP19/MFC high throughput inhibition assay was used. The protocol of the kit, which is based on the effects of the tested agents on the conversion of the fluorescent substrate, 7-methoxy-4-trifluoromethyl coumarin (MFC) to 7-hydroxy-4-trifluoromethyl coumarin (HFC) by aromatase, was followed. […] Then the enzyme/substrate mixture containing the aromatase enzyme and MFC were added to the pre-incubated mixture and were incubated at 37 °C for 30 min before stopping the enzymatic reaction with the stop solution. The fluorescent signal was evaluated at the Excitation/Emission of 409 nm/530 nm and was corrected for the potential innate fluorescence of the tested extracts and compounds.

ERα = settings: read-out: ERα binding (IC50), cited from earlier work
ERβ = settings: read-out: ERβ binding (IC50), cited from earlier work
CYP19A1 expression = experiment: qPCR of CYP19A1 mRNA in high-risk postmenopausal breast tissue microstructures; type: cell-based, human; settings: 24 h, vs vehicle; for Suppression of baseline CYP19A1 expression: 5 µM, six subjects' tissues
Description: Subsequently, RNA extraction and qPCR of CYP19A1 was performed. The expression of CYP19A1 mRNA was calculated relative to the housekeeping gene RPLP0 and normalized to DMSO control.
The unaffected contralateral breast tissues of postmenopausal women who underwent bilateral mastectomy due to incident unilateral breast cancer were obtained while fresh and diced to approximately 5 mm pieces before digesting at 37 °C with 2% collagenase I in F12-K nutrient mix (Kaighn’s) medium, overnight. After the completion of digestion, the tissue was centrifuged at 250×g for 5 min and the supernatant was discarded. The pellet was washed with phosphate buffered saline and was mixed and cultured in MammoCult media supplemented with 0.2% heparin and 0.5% hydrocortisone. After 24 h incubation at 37 °C the treatments were mixed with fresh MammoCult media and added to the microstructures.
After 24 h incubation with the treatments, the microstructure pellet of the first 6 donors’ samples were prepared separately (not pooled) and washed with HBSS. Trizol was added to each pellet and the protocol of Direct-Zol RNA prep kit was used to extract RNA. The protocol included a step of DNAse I treatment for removing DNA contamination of the RNA preparations. RNA was eluted in nuclease free water and the concentration was measured using Nano Drop 2000 spectrophotometry (Thermo Fisher). The Integrated DNA Technologies (IDT) protocol, pre-made aromatase (CYP19A1) gene primer, and the pre-made housekeeping RPLP0 gene primer was used to perform qPCR using QuantStudio 12 K Flex Real Time PCR system.

uterus [1] = system: uterus; parameters: method as in PMID 18619951, PMID 34848279; settings: cited from earlier work
uterus [2] = experiment: In vivo uterotrophic study in immature female Sprague-Dawley rats; parameters: species or system rat; settings: 3 days
Description: Animals were sacrificed on day 4 and their uterine weights were measured.
We used the OECD guidelines and animal model for testing uterotrophic or estrogenic activity of compounds[49]. […] The animals were treated for 3 days every 24 h. Animal weight and food intake were evaluated daily. Animals were sacrificed by CO2 asphyxiation. Uterus was collected, trimmed of fat and connective tissue, and weighted.

MCF-7 cells = experiment: MCF-7 cell proliferation by IncuCyte live cell imaging; type: cell-based, human
Description: Cell proliferation was monitored using live cell imaging by IncuCyte. Data represents the mean of at least two independent observations ± SEM.
MCF-7 cells were seeded at density of 2.5 × 10^3 cells/well in RPMI media supplemented with 10% FBS. Cells were placed in IncuCyte for live cell imaging every 6 h, and were monitored. […] Treatments were repeated every 48 h until day 6 and cells were monitored until day 12. Data was analyzed using Zoom software to quantify the images and were plotted as mean ± SD of at least two independent measurements.

[3] = ref J Agric Food Chem. 2020, 68: 10651–10663

## CC(C)=CCc1c(O)cc2c(c1O)C(=O)C[C@@H](c1ccc(O)cc1)O2 [6-PN, 6-prenylnaringenin]
Aromatase (CYP19A1)
  IC50: 7400 ± 300 nM

## CC(C)=CCc1c(O)cc(O)c2c(=O)cc(-c3ccc(O)cc3)oc12 [8-PA, 8-prenylapigenin]
Aromatase (CYP19A1)
  IC50: 590 ± 80 nM
ERα; [3]
  IC50: 100 ± 50 nM
ERβ; [3]
  IC50: 30 ± 10 nM

## CC(C)=CCc1c(O)cc(O)c2c1O[C@H](c1ccc(O)cc1)CC2=O [8-PN, 8-prenylnaringenin]
Aromatase (CYP19A1)
  IC50: 50 ± 4 nM
CYP19A1 expression; 10 µM, 5 subjects' tissues
  Suppression of CYP19A1 expression: 40%
ERα; [3]
  IC50: […]
ERβ; [3]
  IC50: […]
Uterus [1]
  Uterine growth: enhance uterine growth

## C[C@]12CC[C@@H]3c4ccc(OC(=O)c5ccccc5)cc4CC[C@H]3[C@@H]1CC[C@@H]2O [Estradiol benzoate, 17β-estradiol benzoate, reference compound]
Uterus [2]; 1.6 µg/kg.day s.c.
  Uterine weight vs vehicle: significantly enhanced uterine weight (nearly doubled)

## C=CC(C)(C)c1cc(/C=C/C(=O)c2ccc(O)cc2)c(OC)cc1O [LicA, licochalcone A]
Aromatase (CYP19A1)
  IC50: 3200 ± 100 nM
CYP19A1 expression
  Suppression of baseline CYP19A1 expression: ~40%

## O=C(/C=C/c1ccc(O)cc1)c1ccc(O)cc1O [LigC, isoliquiritigenin]
Aromatase (CYP19A1)
  IC50: 4000 ± 300 nM
ERα; ref PLoS One, 2013, 8: e67947
  IC50: 16000 ± 1000 nM
ERβ; ref PLoS One, 2013, 8: e67947
  IC50: 7800 ± 100 nM

## O=C1C[C@@H](c2ccc(O)cc2)Oc2cc(O)ccc21 [LigF, liquiritigenin]
Aromatase (CYP19A1)
  IC50: 430 ± 20 nM
CYP19A1 expression
  Suppression of baseline CYP19A1 expression: 25%
Uterus [2]; 50 mg/kg.day s.c.
  Uterine growth vs vehicle: did not enhance uterine growth, significantly
Uterus [2]; 150 mg/kg.day s.c. co-administered with estradiol benzoate 1.6 µg/kg.day
  E2-induced uterine growth: suppressed E2-induced uterine growth, significantly
Uterus [2]; 150 mg/kg.day s.c.
  Uterine growth vs vehicle: did not enhance uterine growth, significantly
MCF-7 cells; 20 µM, treatment halted after third dose (six days)
  Cell proliferation after treatment halted: reached full confluency on day 10
MCF-7 cells; 40 µM, last dose on day 6
  Cell proliferation after treatment halted: maintained a significantly reduced proliferation rate until the end of the study (day 11)
MCF-7 cells; MCF-7 cells exposed to LigF
  Cytotoxicity: did not detect cytotoxicity
MCF-7 cells; repeated doses of 20 µM every 48 h
  Cell proliferation: profound suppression of proliferation
MCF-7 cells; repeated doses of 40 µM every 48 h
  Cell proliferation: profound suppression of proliferation
MCF-7 cells; single dose
  Cell proliferation after a single dose: clear reduction in cell proliferation for up to 48 h
ERα; ref PLoS One, 2013, 8: e67947
  IC50: > 200000 nM

## COc1cc(O)c(CC=C(C)C)c(O)c1C(=O)/C=C/c1ccc(O)cc1 [XH, xanthohumol]
Aromatase (CYP19A1)
  IC50: 4300 ± 600 nM

Source: publication PMC10229614 (Scientific Reports, 2023)
